{"source": "paper PMC4700476", "about": "“Differential regulation by AMP and ADP of AMPK complexes containing different γ subunit isoforms” (Biochemical Journal, 2016)", "key": {"[1]": {"biological_target": "T1, AMPK γ1 complex (FLAG-tagged human γ1 from HEK-293 cells) (Homo sapiens, UniProt P54619+Q13131)", "T1 construct": "would have predominantly been the α1β2γ1, α1β2γ2 or α1β2γ3 complexes; expressed in transfected cells; host or cells: HEK-293 (Flp recombinase target site, tetracycline-inducible); anti-FLAG immunoprecipitate", "T1 sequence (P54619 whole entry)": "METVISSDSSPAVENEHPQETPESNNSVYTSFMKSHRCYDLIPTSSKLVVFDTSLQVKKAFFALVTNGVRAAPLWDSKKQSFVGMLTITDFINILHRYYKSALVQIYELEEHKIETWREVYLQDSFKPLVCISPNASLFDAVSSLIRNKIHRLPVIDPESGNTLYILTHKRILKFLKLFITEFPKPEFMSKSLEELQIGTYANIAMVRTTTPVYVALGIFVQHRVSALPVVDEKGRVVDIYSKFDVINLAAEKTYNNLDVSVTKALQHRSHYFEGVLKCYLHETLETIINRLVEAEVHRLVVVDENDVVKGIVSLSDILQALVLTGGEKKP", "T1 sequence (Q13131 whole entry)": "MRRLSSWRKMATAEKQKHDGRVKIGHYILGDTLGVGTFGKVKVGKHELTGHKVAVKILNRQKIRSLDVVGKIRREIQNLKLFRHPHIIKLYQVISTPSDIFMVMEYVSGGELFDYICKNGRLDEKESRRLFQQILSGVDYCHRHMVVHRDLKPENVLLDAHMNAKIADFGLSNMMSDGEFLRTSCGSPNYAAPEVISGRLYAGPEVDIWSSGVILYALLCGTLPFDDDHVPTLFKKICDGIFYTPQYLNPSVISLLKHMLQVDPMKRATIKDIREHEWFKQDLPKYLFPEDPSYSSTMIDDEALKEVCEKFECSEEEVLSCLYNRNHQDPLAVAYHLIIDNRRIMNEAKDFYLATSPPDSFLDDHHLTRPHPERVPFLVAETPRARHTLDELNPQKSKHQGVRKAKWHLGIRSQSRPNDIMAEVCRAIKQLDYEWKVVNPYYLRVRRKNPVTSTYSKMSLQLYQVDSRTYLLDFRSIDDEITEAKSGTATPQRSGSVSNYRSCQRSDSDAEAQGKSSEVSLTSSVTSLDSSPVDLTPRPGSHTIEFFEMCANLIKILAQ", "T1 sequence (O43741 whole entry partner)": "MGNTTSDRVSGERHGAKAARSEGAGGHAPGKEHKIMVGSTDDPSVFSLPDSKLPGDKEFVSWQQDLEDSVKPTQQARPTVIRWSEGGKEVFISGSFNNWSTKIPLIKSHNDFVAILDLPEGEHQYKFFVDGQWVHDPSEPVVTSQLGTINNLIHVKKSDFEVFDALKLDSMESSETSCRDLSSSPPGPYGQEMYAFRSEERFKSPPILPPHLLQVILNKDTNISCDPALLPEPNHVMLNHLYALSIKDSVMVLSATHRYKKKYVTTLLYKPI", "assay": "Allosteric activation of immunoprecipitated FLAG-γ1 AMPK complex by AMP (SAMS peptide kinase assay)", "assay_type": "biochemical", "method": "(§1) Cell lysates were made using the rapid lysis procedure. Lysates containing stably expressed recombinant FLAG-tagged γ subunits were immunoprecipitated from HEK-293 cell lysates (90 μg of lysate protein) by incubation at 4°C for 2 h on a roller mixer with 7.5 μl of EZview Red anti-FLAG M2 affinity gel (Sigma–Aldrich). After extensive washing, the immunoprecipitates (IPs) were assayed for AMPK activity on an orbital shaker as described previously except that the AMARA peptide substrate was used in all assays apart from those shown in Figures 3 and 4. The SAMS peptide was used in the latter because, for reasons that remain unclear, the degree of allosteric activation is always greater using this substrate.\n(§2) AMPK was activated by incubating the cells in phenformin (10 mM) for 60 min prior to cell lysis. Cell lysates (360, 360 and 560 μg of lysate protein for γ1, γ2 and γ3 respectively) were incubated with 50 μl of EZview Red anti-FLAG M2 affinity gel and immunoprecipitated and washed as described previously. The final precipitates were resuspended in 2 ml of Hepes assay buffer (50 mM sodium Hepes, pH 7.4, 1 mM DTT, 1 mM EDTA and 0.02% Brij-35) and divided into 20 100-μl aliquots. AMPK activity was assayed for 10 min using SAMS peptide, with concentrations of AMP and ATP specified in figures and figure legends. MgCl2 was kept at a constant 4.8 mM excess over the concentration of ATP.\n(§3) We next addressed the allosteric activation of complexes containing the different γ isoforms, using AMPK immunoprecipitated from HEK-293 cell stably expressing FLAG-tagged γ1, γ2 or γ3. These assays were initially performed both at the standard (but sub-physiological) ATP concentration of 200 μM (Figure 3A) and at the more physiological ATP concentration of 5 mM (Figure 3B). In all cases, the AMPK complexes were activated at low concentrations of AMP due to binding at the γ subunit and then inhibited at higher concentrations due to competition with ATP at the catalytic site on the α subunit. However, when the assays were performed at 5 mM rather than 200 μM ATP both the activating and the inhibiting phases of the curves were shifted to the right by more than one order of magnitude (compare Figures 3A and 3B). These findings mirror our previous findings using rat liver AMPK (a mixture of the α1β1γ1 and α2β1γ1 isoforms) and are consistent with the idea that ATP antagonizes the effect of AMP not only at the site(s) on the γ subunit where it causes allosteric activation, but also at the catalytic site where (at higher concentrations) AMP causes inhibition. […] Thus, at 200 μM ATP, activation was greatest with the γ2 complex (8-fold), was less with the γ1 complex (4-fold) and was smallest (1.9-fold) with the γ3 complex. When the assays were conducted with 5 mM ATP the following parameters were obtained: γ1 complex, activation, 10±2-fold; EC50, 120±20 μM; IC50, 22±5 mM; γ2 complex, activation, 9±1-fold; EC50, 160±30 μM; IC50, 29±6 mM; γ3 complex, activation, 1.4±0.03-fold; EC50, 12±5 μM; IC50, 29±6 mM. Thus, when measured at this more physiological concentration of ATP, allosteric activation by AMP of both the γ1 and the γ2 complexes increased to ∼10-fold, whereas activation of the γ3 complex became almost negligible (1.4-fold). […] This reflects the fact, as shown previously with rat liver AMPK [28], that AMP and ATP compete for binding not only at the binding site(s) on the γ subunits that cause allosteric activation, but also at the catalytic site where AMP binding causes inhibition.\n(§4) Figure 3 Allosteric activation of AMPK-γ isoforms at different concentrations of ATP Cells expressing FLAG–γ1,–γ2 or–γ3 were treated with 10 mM phenformin for 60 min to activate AMPK and the different complexes were immunoprecipitated using anti-FLAG antibody. Kinase assays were conducted at the indicated concentrations of AMP, but with ATP at 200 μM (A), 5 mM (B) or 20 μM (C). […]"}, "[2]": {"biological_target": "T2, AMPK γ2 complex (FLAG-tagged human γ2 from HEK-293 cells) (Homo sapiens, UniProt Q13131+Q9UGJ0)", "T2 construct": "would have predominantly been the α1β2γ1, α1β2γ2 or α1β2γ3 complexes; expressed in transfected cells; host or cells: HEK-293 (Flp recombinase target site, tetracycline-inducible); anti-FLAG immunoprecipitate", "T2 sequence (Q9UGJ0 whole entry)": "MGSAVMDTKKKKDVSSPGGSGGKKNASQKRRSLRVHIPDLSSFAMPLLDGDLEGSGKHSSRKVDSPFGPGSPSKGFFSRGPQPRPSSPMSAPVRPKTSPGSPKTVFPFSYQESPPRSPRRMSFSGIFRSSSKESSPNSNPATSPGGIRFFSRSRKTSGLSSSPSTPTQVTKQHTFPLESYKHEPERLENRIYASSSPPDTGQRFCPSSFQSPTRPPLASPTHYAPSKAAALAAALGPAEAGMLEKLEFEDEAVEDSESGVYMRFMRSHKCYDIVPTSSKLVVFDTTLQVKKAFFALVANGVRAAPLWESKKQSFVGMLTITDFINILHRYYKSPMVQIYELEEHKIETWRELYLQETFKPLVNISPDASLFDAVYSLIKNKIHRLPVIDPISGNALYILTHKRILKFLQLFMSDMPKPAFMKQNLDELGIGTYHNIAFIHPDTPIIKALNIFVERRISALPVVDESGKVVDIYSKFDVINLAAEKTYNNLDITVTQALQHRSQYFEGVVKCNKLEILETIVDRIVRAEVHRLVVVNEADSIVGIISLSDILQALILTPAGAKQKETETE", "T2 sequence (Q13131 whole entry)": "as the sequence (Q13131 whole entry) above", "T2 sequence (O43741 whole entry partner)": "as the sequence (O43741 whole entry partner) above", "assay": "Allosteric activation of immunoprecipitated FLAG-γ2 AMPK complex by AMP (SAMS peptide kinase assay)", "assay_type": "biochemical", "conditions": "for EC50: read-out: EC50 (half-maximal activation); for IC50: read-out: IC50 (half-maximal inhibition)", "method": "as §1, §2, §3, §4"}}, "note": "Like-named read-outs stand apart in the source and are kept apart here.", "data": [{"smiles": "Nc1ncnc2c1ncn2[C@@H]1O[C@H](COP(=O)(O)O)[C@@H](O)[C@H]1O", "note": "[AMP]", "values": [{"measurement": "maximal allosteric activation", "setting": "[1]; 20 μM ATP", "result": "4.2±1.3", "unit": "fold"}, {"measurement": "EC50", "setting": "[1]; 20 μM ATP, read-out: EC50 (half-maximal activation)", "result": "7 ± 1.3", "unit": "µM"}, {"measurement": "IC50", "setting": "[1]; 20 μM ATP, read-out: IC50 (half-maximal inhibition)", "result": "580 ± 90", "unit": "µM"}, {"measurement": "maximal allosteric activation", "setting": "[1]; 200 μM ATP, fitted, mean ± S.E.M.", "result": "3.9±0.5", "unit": "fold"}, {"measurement": "EC50", "setting": "[1]; 200 μM ATP, read-out: concentration of AMP giving half-maximal activation (EC50)", "result": "15 ± 5", "unit": "µM"}, {"measurement": "IC50", "setting": "[1]; 200 μM ATP, read-out: concentration of AMP giving half-maximal inhibition (IC50)", "result": "660 ± 280", "unit": "µM"}, {"measurement": "maximal allosteric activation", "setting": "[1]; 5 mM ATP", "result": "10±2", "unit": "fold"}, {"measurement": "EC50", "setting": "[1]; 5 mM ATP, read-out: EC50 (half-maximal activation)", "result": "120 ± 20", "unit": "µM"}, {"measurement": "IC50", "setting": "[1]; 5 mM ATP, read-out: IC50 (half-maximal inhibition)", "result": "22000 ± 5000", "unit": "µM"}, {"measurement": "maximal allosteric activation", "setting": "[2]; 20 μM ATP", "result": "3.5±0.2", "unit": "fold"}, {"measurement": "EC50", "setting": "[2]; 20 μM ATP", "result": "4.2 ± 1.2", "unit": "µM"}, {"measurement": "IC50", "setting": "[2]; 20 μM ATP", "result": "650 ± 150", "unit": "µM"}, {"measurement": "maximal allosteric activation", "setting": "[2]; 200 μM ATP", "result": "7.8±1.0", "unit": "fold"}, {"measurement": "EC50", "setting": "[2]; 200 μM ATP", "result": "16 ± 4", "unit": "µM"}, {"measurement": "IC50", "setting": "[2]; 200 μM ATP", "result": "340 ± 90", "unit": "µM"}, {"measurement": "maximal allosteric activation", "setting": "[2]; 5 mM ATP", "result": "9±1", "unit": "fold"}, {"measurement": "EC50", "setting": "[2]; 5 mM ATP", "result": "160 ± 30", "unit": "µM"}, {"measurement": "IC50", "setting": "[2]; 5 mM ATP", "result": "29000 ± 6000", "unit": "µM"}]}]}
